Measured values published in US11771124B2, “Composition comprising mannose oligosaccharide and process for making same and use thereof” (CARGILL, INCORPORATED, priority 2017, dated 2023).
Marks after values point to notes of the source that are not given here.

Tests used:
[1] = Trial 3: broiler performance with or without chlortetracycline; type: in vivo, broiler chickens; conditions: Composition A dose 0.02%
C2Be1 cell line = assay: Intestinal cell proliferation in vitro (BrdU ELISA); type: cell-based
Description: Cells were treated with products under serum-limited conditions for 4-5 days. BrdU ELISA is used to measure the amount of proliferation, where it measures the amount of BrdU incorporated into proliferating cells (the more proliferation, the more BrdU that will be detected in the DNA of the cells). Levels of proliferation are expressed as a ratio calculated by dividing the BrdU incorporation of test wells by that of the controls that has medium only. […] The assay is repeated in triplicate on two separate occasions. […]

Molecule	BW35 ([1]; broiler chickens up to 35 days of age)	ADFI 0-35 ([1]; broiler chickens) [c g]	ADG 0-35 ([1]; broiler chickens)	BW0 ([1]; broiler chickens)	F:G 0-35 ([1]; broiler chickens)	% compared to media only (control), Mean (C2Be1 cell line; EGF concentration 10) [%]	Proliferation Ratio (relative to control = 1), Mean (C2Be1 cell line; EGF concentration 10)	% compared to media only (control), Mean (C2Be1 cell line; EGF concentration 100) [%]	Proliferation Ratio (relative to control = 1), Mean (C2Be1 cell line; EGF concentration 100)
CN(C)[C@@H]1C(O)=C(C(N)=O)C(=O)[C@@]2(O)C(O)=C3C(=O)c4c(O)ccc(Cl)c4[C@@](C)(O)[C@H]3C[C@@H]12 [CTC, chlortetracycline]	1978.6^b g	90.8	55.4^b g	40.2^ns g	1.64^b	–	–	–	–
EGF: epithelial growth factor, positive control known to affect cell proliferation	–	–	–	–	–	113.5	1.13	119.6	1.20
